Reference: US20220089575A1, “FARNESOID X RECEPTOR AGONISTS AND USES THEREOF” (Metacrine, Inc., priority 2017, published 2022)

Target: T1, hFXR (Homo sapiens, UniProt Q96RI1)
T1 construct: expressed in transfected cells; host or cells: CV-1 cells
T1 sequence (Q96RI1 1-486): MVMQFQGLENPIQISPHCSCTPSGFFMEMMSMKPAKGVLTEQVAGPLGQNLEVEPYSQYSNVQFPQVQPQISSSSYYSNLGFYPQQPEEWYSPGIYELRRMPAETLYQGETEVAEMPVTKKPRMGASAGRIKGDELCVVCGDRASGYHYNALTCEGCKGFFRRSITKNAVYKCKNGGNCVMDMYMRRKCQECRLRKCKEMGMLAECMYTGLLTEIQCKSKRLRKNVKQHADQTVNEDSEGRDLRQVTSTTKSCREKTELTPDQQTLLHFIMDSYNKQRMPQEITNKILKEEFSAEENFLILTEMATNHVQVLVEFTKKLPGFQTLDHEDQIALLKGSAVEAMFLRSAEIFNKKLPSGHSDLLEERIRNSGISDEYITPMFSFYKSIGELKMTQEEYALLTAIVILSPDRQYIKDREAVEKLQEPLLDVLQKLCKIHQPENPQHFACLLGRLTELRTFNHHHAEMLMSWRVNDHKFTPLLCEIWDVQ
T1 sequence (P19793 1-462 partner): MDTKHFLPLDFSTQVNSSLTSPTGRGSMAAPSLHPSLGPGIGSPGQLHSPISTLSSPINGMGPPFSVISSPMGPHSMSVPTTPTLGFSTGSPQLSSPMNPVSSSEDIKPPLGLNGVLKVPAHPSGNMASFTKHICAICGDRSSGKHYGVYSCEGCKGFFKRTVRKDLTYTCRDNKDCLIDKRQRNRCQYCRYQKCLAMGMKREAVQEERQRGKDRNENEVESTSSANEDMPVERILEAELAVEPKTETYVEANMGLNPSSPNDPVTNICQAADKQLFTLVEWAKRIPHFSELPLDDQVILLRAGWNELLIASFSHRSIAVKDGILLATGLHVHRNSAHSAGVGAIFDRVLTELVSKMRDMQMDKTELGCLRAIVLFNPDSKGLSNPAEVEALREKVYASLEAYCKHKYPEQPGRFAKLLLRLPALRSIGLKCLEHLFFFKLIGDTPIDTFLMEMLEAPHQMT
Assay: In Vitro FXR Assay (TK): TK-ECRE-luc reporter in transfected CV-1 cells
Assay type: cell-based
Conditions: 18 hrs, luminescence, maximum efficacy of <25% of the Fexarmine control classified as '+'
Outline: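 CV-1 cells in DMEM with 10% charcoal-stripped FBS were co-transfected with hFXR, hRXR, TK-ECRE-luc reporter and pCMX-YFP plasmids. After 18 h, compounds serially diluted in DMSO were added for a further 18 h, then cells were lysed and luminescence read.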

Row | EC50 [nM] | Compound
1 | ≤ 250 | COc1ccc([C@H]2CC[C@H](CN(c3cccc(-c4cnc(C5CC5)s4)c3)C(=O)[C@H]3CC[C@H](NC(=O)CSC)CC3)CC2)cc1C [Compound 31.10, trans-N-(3-(2-Cyclopropylthiazol-5-yl)phenyl)-N-((trans-4-(4-methoxy-3-methylphenyl)cyclohexyl)methyl)-4-(2-(methylthio)acetamido) cyclohexanecarboxamide]
2 | ≤ 250 | COc1ccc([C@H]2CC[C@H](CN(c3cccc(-c4cnc(C5CC5)s4)c3)C(=O)[C@H]3CC[C@H](NC(=O)C[S+](C)[O-])CC3)CC2)cc1C (stereo partly drawn) [Compound 31.11, trans-N-(3-(2-Cyclopropylthiazol-5-yl)phenyl)-N-((trans-4-(4-methoxy-3-methylphenyl)cyclohexyl)methyl)-4-(2-(methylsulfinyl)acetamido) cyclohexanecarboxamide]
3 | ≤ 250 | COc1ccc([C@H]2CC[C@H](CN(c3cccc(-c4cnc(C5CC5)s4)c3)C(=O)[C@H]3CC[C@H](NC(=O)CS(C)(=O)=O)CC3)CC2)cc1C [Compound 31.12, trans-N-(3-(2-Cyclopropylthiazol-5-yl)phenyl)-N-((trans-4-(4-methoxy-3-methylphenyl)cyclohexyl)methyl)-4-(2-(methylsulfonyl)acetamido) cyclohexanecarboxamide]
4 | 250 to 1000 | COc1ccc([C@H]2CC[C@H](CN(c3cccc(-c4cnc(C5CC5)s4)c3)C(=O)[C@H]3CC[C@H](NC(=O)CC[S+](C)[O-])CC3)CC2)cc1C (stereo partly drawn) [Compound 31.13, trans-N-(3-(2-Cyclopropylthiazol-5-yl)phenyl)-N-((trans-4-(4-methoxy-3-methylphenyl)cyclohexyl)methyl)-4-(3-(methylsulfinyl)propanamido) cyclohexanecarboxamide]
5 | ≤ 250 | COc1ccc([C@H]2CC[C@H](CN(c3cccc(-c4cnc(C5CC5)s4)c3)C(=O)[C@H]3CC[C@H](NC(=O)CCS(C)(=O)=O)CC3)CC2)cc1C [Compound 31.14, trans-N-(3-(2-Cyclopropylthiazol-5-yl)phenyl)-N-((trans-4-(4-methoxy-3-methylphenyl)cyclohexyl)methyl)-4-(3-(methylsulfonyl)propanamido) cyclohexanecarboxamide]
6 | ≤ 250 | COc1ccc([C@H]2CC[C@H](CN(c3cccc(-c4cnc(C5CC5)s4)c3)C(=O)[C@H]3CC[C@H](NC(=O)Cc4c[nH]cn4)CC3)CC2)cc1C [Compound 31.15, trans-4-(2-(1H-Imidazol-4-yl)acetamido)-N-(3-(2-cyclopropylthiazol-5-yl)phenyl)-N-((trans-4-(4-methoxy-3-methylphenyl)cyclohexyl)methyl) cyclohexanecarboxamide]
7 | ≤ 250 | COc1ccc([C@H]2CC[C@H](CN(c3cccc(-c4cnn(C5CC5)c4)c3)C(=O)[C@H]3CC[C@H](NC(=O)COCCCO)CC3)CC2)cc1C [Compound 32, trans-N-(3-(1-Cyclopropyl-1H-pyrazol-4-yl)phenyl)-4-(2-(3-hydroxypropoxy)acetamido)-N-((trans-4-(4-methoxy-3-methylphenyl)cyclohexyl)methyl)cyclohexanecarboxamide]
8 | ≤ 250 | COc1ccc([C@H]2CC[C@H](CN(c3cccc(-c4cnn(C5CC5)c4)c3)C(=O)[C@H]3CC[C@H](NC(=O)COCCO)CC3)CC2)cc1C [Compound 32.01, trans-N-(3-(1-Cyclopropyl-1H-pyrazol-4-yl)phenyl)-4-(2-(2-hydroxyethoxy)acetamido)-N-((trans-4-(4-methoxy-3-methylphenyl)cyclohexyl)methyl)cyclohexanecarboxamide]
9 | ≤ 250 | COc1ccc([C@H]2CC[C@H](CN(c3cccc(-c4cnc(C5CC5)s4)c3)C(=O)[C@H]3CC[C@H](NC(=O)COCCO)CC3)CC2)cc1C [Compound 32.02, trans-N-(3-(2-Cyclopropylthiazol-5-yl)phenyl)-4-(2-(2-hydroxyethoxy)acetamido)-N-((trans-4-(4-methoxy-3-methylphenyl)cyclohexyl)methyl) cyclohexanecarboxamide]

Continued, compound first:

Row | Compound | EC50 [nM]
10 | COc1ccc([C@H]2CC[C@H](CN(c3cccc(-c4cnc(C5CC5)s4)c3)C(=O)[C@H]3CC[C@H](NC(=O)CNS(C)(=O)=O)CC3)CC2)cc1C [Compound 30.06, trans-N-(3-(2-Cyclopropylthiazol-5-yl)phenyl)-N-((trans-4-(4-methoxy-3-methylphenyl)cyclohexyl)methyl)-4-(2-(methylsulfonamido)acetamido) cyclohexanecarboxamide] | ≤ 250
11 | COC(=O)NCC(=O)N[C@H]1CC[C@H](C(=O)N(C[C@H]2CC[C@H](c3ccc(OC)c(C)c3)CC2)c2cccc(-c3cnn(C4CC4)c3)c2)CC1 [Compound 31, Methyl (2-((trans-4-((03-(1-cyclopropyl-1H-pyrazol-4-yl)phenyl)((trans-4-(4-methoxy-3-methylphenyl)cyclohexyl)methyl)carbamoyl)cyclohexyl)amino)-2-oxoethyl)carbamate] | ≤ 250
12 | COc1ccc([C@H]2CC[C@H](CN(c3cccc(-c4cnn(C5CC5)c4)c3)C(=O)[C@H]3CC[C@H](NC(=O)CNC(C)=O)CC3)CC2)cc1C [Compound 31.01, trans-4-(2-Acetamidoacetamido)-N-(3-(1-cyclopropyl-1H-pyrazol-4-yl)phenyl)-N-((trans-4-(4-methoxy-3-methylphenyl)cyclohexyl)methyl)cyclohexanecarboxamide] | ≥ 1000
13 | COc1ccc([C@H]2CC[C@H](CN(c3cccc(-c4cnn(C5CC5)c4)c3)C(=O)[C@H]3CC[C@H](NC(=O)CS(C)(=O)=O)CC3)CC2)cc1C [Compound 31.02] | 250 to 1000
14 | COc1ccc([C@H]2CC[C@H](CN(c3cccc(-c4cnn(C5CC5)c4)c3)C(=O)[C@H]3CC[C@H](NC(=O)CNS(C)(=O)=O)CC3)CC2)cc1C [Compound 31.03, trans-N-(3-(1-Cyclopropyl-1H-pyrazol-4-yl)phenyl)-N-((trans-4-(4-methoxy-3-methylphenyl)cyclohexyl)methyl)-4-(2-(methylsulfonamido)acetamido) cyclohexane carboxamide] | ≥ 1000
15 | COc1ccc([C@H]2CC[C@H](CN(c3cccc(-c4cnn(C5CC5)c4)c3)C(=O)[C@H]3CC[C@H](NC(=O)C[S+](C)[O-])CC3)CC2)cc1C (stereo partly drawn) [Compound 31.04, trans-N-(3-(1-Cyclopropyl-1H-pyrazol-4-yl)phenyl)-N-((trans-4-(4-methoxy-3-methylphenyl)cyclohexyl)methyl)-4-(2-(methylsulfinyl)acetamido) cyclohexanecarboxamide] | 250 to 1000
16 | COC(=O)NCC(=O)N[C@H]1CC[C@H](C(=O)N(C[C@H]2CC[C@H](c3ccc(OC)c(C)c3)CC2)c2cccc(-c3cnc(C4CC4)s3)c2)CC1 [Compound 31.05, Methyl (2-((trans-4-((3-(2-cyclopropylthiazol-5-yl)phenyl)((trans-4-(4-methoxy-3-methylphenyl)cyclohexyl)methyl)carbamoyl)cyclohexyl)amino)-2-oxoethyl)carbamate] | ≤ 250
17 | COc1ccc([C@H]2CC[C@H](CN(c3cccc(-c4cnc(C5CC5)s4)c3)C(=O)[C@H]3CC[C@H](NC(=O)CN(C)C)CC3)CC2)cc1C [Compound 31.06, trans-N-(3-(2-Cyclopropylthiazol-5-yl)phenyl)-4-(2-(dimethylamino)acetamido)-N-((trans-4-(4-methoxy-3-methylphenyl)cyclohexyl)methyl)cyclohexanecarboxamide] | ≤ 250
18 | COc1ccc([C@H]2CC[C@H](CN(c3cccc(-c4cnc(C5CC5)s4)c3)C(=O)[C@H]3CC[C@H](NC(=O)CN)CC3)CC2)cc1C [Compound 31.07, trans-4-(2-Aminoacetamido)-N-(3-(2-cyclopropylthiazol-5-yl)phenyl)-N-((trans-4-(4-methoxy-3-methylphenyl)cyclohexyl)methyl) cyclohexanecarboxamide] | 250 to 1000
19 | CNCC(=O)N[C@H]1CC[C@H](C(=O)N(C[C@H]2CC[C@H](c3ccc(OC)c(C)c3)CC2)c2cccc(-c3cnc(C4CC4)s3)c2)CC1 [Compound 31.08, trans-N-(3-(2-Cyclopropylthiazol-5-yl)phenyl)-N-((trans-4-(4-methoxy-3-methylphenyl)cyclohexyl)methyl)-4-(2-(methylamino)acetamido) cyclohexanecarboxamide] | ≤ 250
20 | COc1ccc([C@H]2CC[C@H](CN(c3cccc(-c4cnc(C5CC5)s4)c3)C(=O)[C@H]3CC[C@H](NC(=O)CNC(C)=O)CC3)CC2)cc1C [Compound 31.09, trans-4-(2-Acetamidoacetamido)-N-(3-(2-cyclopropylthiazol-5-yl)phenyl)-N-((trans-4-(4-methoxy-3-methylphenyl)cyclohexyl)methyl)cyclohexanecarboxamide] | ≤ 250
